Source: ChEMBL document CHEMBL1201862, “PubChem BioAssay data set” (2004)
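In this assay, cells in 96-well plates receive the compound at five concentrations for 48 hours. Endpoints are linearly interpolated between the surrounding concentrations. Abbreviation: GI50, concentration required for 50% inhibition of growth.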 Activity calls are given as the source filed them. Cut-off read from the data, not from the text of the source: active = GI50 up to about 1.1 µM and inactive = higher.

Experiments:
Experiment in all cases: DTP human tumour cell line panel, 48 h
[1] = system: ACHN
[2] = system: HCT-15
[3] = system: OVCAR-5
[4] = system: Malme-3M
[5] = system: NCI/ADR-RES
[6] = system: CCRF-CEM
[7] = system: COLO 205
[8] = system: SF-295
[9] = system: RXF 393
[10] = system: LOX IMVI
[11] = system: M14
[12] = system: NCI-H460
[13] = system: RPMI-8226
[14] = system: SN12C
[15] = system: SK-MEL-2
[16] = system: IGROV-1
[17] = system: BT-549
[18] = system: SNB-75
[19] = system: T47D
[20] = system: PC-3
[21] = system: KM12
[22] = system: K562
[23] = system: SNB-19
[24] = system: DU-145
[25] = system: Hs-578T
[26] = system: SW-620
[27] = system: TK-10
[28] = system: EKVX
[29] = system: MDA-MB-231
[30] = system: HCC 2998
[31] = system: HT-29
[32] = system: MOLT-4
[33] = system: MDA-MB-435
[34] = system: NCI-H226
[35] = system: HCT-116
[36] = system: A549
[37] = system: SF-268
[38] = system: OVCAR-8
[39] = system: UACC-62
[40] = system: A498
[41] = system: UO-31
[42] = system: MDA-N
[43] = system: UACC-257
[44] = system: MCF7
[45] = system: NCI-H522
[46] = system: CAKI-1
[47] = system: OVCAR-3
[48] = system: 786-0
[49] = system: SK-MEL-28
[50] = system: U-251
[51] = system: SK-OV-3
[52] = system: SK-MEL-5
[53] = system: SF-539
[54] = system: NCI-H23
[55] = system: HOP-62
[56] = system: OVCAR-4
[57] = system: HL-60
[58] = system: HOP-92

Measured: GI50

COC(=O)[C@@]1(NC(=O)C(CC(=O)OC(C)(C)C)NC(=O)OC(C)(C)C)C[C@H]1C (stereo partly drawn)
> 100 µM: [2]
inactive: [1] > 100 µM | [3] > 100 µM | [4] > 100 µM | [5] > 100 µM | [6] > 100 µM | [7] > 100 µM | [8] > 100 µM | [9] > 100 µM | [10] > 100 µM | [11] > 100 µM | [12] > 100 µM | [13] > 100 µM | [14] > 100 µM | [15] > 100 µM | [16] > 100 µM | [17] > 100 µM | [18] > 100 µM | [19] > 100 µM | [20] > 100 µM | [21] > 100 µM | [22] > 100 µM | [23] > 100 µM | [24] > 100 µM | [25] > 100 µM | [26] > 100 µM | [27] > 100 µM | [28] > 100 µM | [29] > 100 µM | [30] > 100 µM | [31] > 100 µM | [32] > 100 µM | [33] > 100 µM | [34] > 100 µM | [35] > 100 µM | [36] > 100 µM | [37] > 100 µM | [38] > 100 µM | [39] > 100 µM | [40] > 100 µM | [41] > 100 µM | [42] > 100 µM | [43] > 100 µM | [44] > 100 µM | [45] > 100 µM | [46] > 100 µM | [47] > 100 µM | [48] > 100 µM | [49] > 100 µM | [50] > 100 µM | [51] > 100 µM | [52] > 100 µM | [53] > 100 µM | [54] > 100 µM | [55] > 100 µM | [56] > 100 µM

NCCCNCCCCN1CC1
active: [57] 0.601 µM | [6] 0.836 µM | [7] 1.02 µM | [9] 0.705 µM | [10] 0.637 µM | [18] 0.372 µM | [19] 0.265 µM | [25] 1.08 µM | [58] 0.745 µM | [46] 0.0486 µM | [48] 0.713 µM | [53] 0.836 µM | [56] 0.259 µM
inactive: [1] 1.3 µM | [3] 12 µM | [4] 4.57 µM | [5] 3.33 µM | [8] 20 µM | [11] 11.4 µM | [12] 16.7 µM | [13] 7.01 µM | [14] 3.77 µM | [15] 1.69 µM | [16] 3.84 µM | [17] 5.4 µM | [20] 5.69 µM | [21] 6.98 µM | [22] 2.49 µM | [23] 6.55 µM | [24] 2.12 µM | [26] 2.31 µM | [27] 5.96 µM | [28] 4.61 µM | [29] 1.4 µM | [30] 7.06 µM | [31] 7.05 µM | [32] 1.26 µM | [33] 3.6 µM | [34] 8.49 µM | [35] 6.92 µM | [36] 9.57 µM | [37] 1.99 µM | [38] 2.07 µM | [39] 3.99 µM | [41] 7.18 µM | [42] 3.63 µM | [43] 1.39 µM | [44] 28.9 µM | [45] 2.81 µM | [47] 1.6 µM | [49] 7.76 µM | [50] 2.84 µM | [51] 2.25 µM | [52] 2.25 µM | [54] 6.7 µM | [55] 2.72 µM
8.41 µM: [2]
